pIC50: −log10 of the molar value.
Legend:
[1] = tested on: human normal liver cell line L-02; assay: Cytotoxicity test on human normal liver cell line L-02 (Alamar Blue); format: cell-based; conditions: L02, L-02 cells, 120 h incubation, cell viability, read-out: half inhibitory concentration (IC50) against L-02
Method: 2.1 The normal liver cell lines L-02 and WRL-68 were cultured with DMEM culture medium (containing 10% of fetal bovine serum, 100 U/mL of penicillin and 0.1 mg/mL of streptomycin) in an incubator under 5% CO2 at 37° C. until the cell density was about 90%, respectively.
2.3 Tested compounds and benzbromarone at different concentration gradients were prepared by using the DMEM culture medium and added into wells at 100 μL/well as compounds wells. The DMEM culture medium was added into wells at 100 μL/well without tested compound as negative control wells.
This 10× Alamar Blue solution was diluted into 1× Alamar Blue solution with phenol red free DMEM culture medium before use.
2.5 The cells were washed with PBS (0.1 M, pH=7.4) twice. The Alamar Blue solution was added into wells at 100 μL/well. 100 μL of Alamar Blue solution was added into wells without cells to serve as blank control wells. The 96-well plate was placed in an incubator under 5% CO2 at 37° C. for 3 h. Each concentration of compound was repeated three times during the test.
The fluorescence value of the cells containing compound is the F(test compound); the fluorescence value of the cells without compound as blank control is the F(blank control); the fluorescent value of the cells from negative control group is F(negative control). The average value and standard deviation of cell viability of three repeated concentrations was calculated by the following formula: […]
2.7 The half inhibitory concentration (IC50) of the compound for the cells L-02 and WRL-68 was obtained from the cell viability by Prism Graph software.

[2] = Acute toxicity of single oral dose in SD rats; conditions: for Weight gain rate (%): 14 day compared with 0 day
Text: Rats were randomly divided into group A1, group B1 and blank control group. Each group has 10 of rats with half male and half female.

[3] = female SD rats (n=5), 74 at 5.0 g/kg, BBR at 0.14 g/kg
[4] = male SD rats (n=5), 74 at 5.0 g/kg, BBR at 0.14 g/kg

## CCc1nc2ccccn2c1C(=O)c1cc(Br)c(O)c(C#N)c1 [Compound 74, 3-bromo-5-(2-ethylimidazo[1,2-a]pyridine-3-carbonyl)-2-hydroxybenzonitrile hydrogen chloride]
[1]
  pIC50: < 4.00
[2]; SD rats, single oral dose, 74 at 5.0 g/kg, BBR at 0.14 g/kg, 10 rats per group, 14 days observation
  Death rate: 0/10
[2]; [3]
  Weight 0 day (X ± SD): 135.94 ± 5.62 g
  Weight 7 day (X ± SD): 183.02 ± 11.10 g
  Weight 14 day (X ± SD): 208.04 ± 11.90 g
[2]; female SD rats (n=5)
  Weight gain rate (%): +53.0%
[2]; [4]
  Weight 0 day (X ± SD): 149.06 ± 5.95 g
  Weight 7 day (X ± SD): 204.04 ± 21.69 g
  Weight 14 day (X ± SD): 258.12 ± 17.65 g
[2]; male SD rats (n=5)
  Weight gain rate (%): +73.2%
[2]; pre-experiment, compound 74 at 5 g/kg (highest dose), benzbromarone at 0.14 g/kg
  death of rats in pre-experiment of acute toxicity: did not cause death

Source: patent US10399971B2, “Compound for treating or preventing hyperuricemia or gout” (JIANGSU ATOM BIOSCIENCE AND PHARMACEUTICAL CO., LTD., priority 2015, dated 2019)
